Here are results for 10 compounds from US20220127297A1, “Novel Antibacterial 3"-Derivatives Of 4,6-Disubstituted 2,5-Dideoxystreptamine Aminoglycoside Antibiotics” (AGILeBiotics B.V., priority 2018, published 2022).

In brackets after ≈: the same amount, converted by molar mass. Like-named read-outs stand apart in the source and are kept apart here.

For one test, the system named is K. pneumoniae DSM 26371. The test is described as follows: MIC 50, broth micro-dilution, DSM strains. In kind it is cell-based, Klebsiella pneumoniae. The source says:
(§1) 3.2 Against Selected Bacteria of the ESKAPE Panel and Enterococcus faecalis (DSM Strains)
(§2) Tested reference compounds. Amikacin sulfate (Cat. No. 01693, Chem-Impex), Gentamicin sulfate (Cat. No. G4918, Sigma Aldrich).
(§3) Microbial strains. Enterococcus faecalis DSM 2570, Klebsiella pneumoniae DSM 26371, Acinetobacter baumannii DSM 105126, Enterobacter cloacae 3MRGN (clinical bronchial aspirate isolate).
(§4) Culture media and equipment. BBL™ Mueller Hinton Broth 2 (Lot. BCBW1143, Cat. No. 70192, Sigma); Trypcase Soy Blood-agar plates (Cat. No. 43001, Biomérieux); Cryoinstant (contains 15% glycerol; Cat. No. 822070ZA, VWR International); GasPak™ EZ Standard Incubation Container (Cat. No. 260671, Becton Dickinson); GasPak™ EZ Campy Container System Sachets (Cat. No. 260680, Becton Dickinson); 96-well deep well plate, 1 mL (Cat. No. 0030506.200, Eppendorf); Plate lid (Cat. No. 0030131.525, Eppendorf); 96-well plate, F-bottom (Cat. No. 260860, Nunc); Incubator (Sartorius Certomat BS-1); Laminar flow (Heraeus HS12); UV/VIS meter (Perkin Elmer Lambda Bio+); Platereader (Tecan Infinite M200 Pro).
(§5) Compound preparation. Compounds were prepared in MH2 media at a concentration of 5 mM and stored at 4° C. For testing, solutions of 128 μM were prepared in MH2, for tests against E. faecalis a solution of 512 μM was prepared. Out of these working solutions, 400 μL was transferred to wells in the first column of 96-well deep well plates. Each compound was transferred in triplicate. Plates were previously filled with 200 μL of MH2 media in all wells except for the wells in the first column. After compound and antibiotic addition, the compounds were serial two-fold diluted by transferring 200 μL from the first to the second column, then from the second to the third column and so on. Finally, 200 μL was removed from the last column.
(§6) Inoculum preparation. Microorganisms used were all revived from 15% glycerol storage in Croinstant tubes at −28° C. by plating them on blood agar plates. A. baumanni, and E. cloacae were grown aerobically at 37° C., E. faecalis was grown microaerophilically at 37° C., and K. pneumoniae was grown aerobically at 37° C. Plates were stored at 4° C. for up to two weeks, after which new plates were prepared from −28° C. A single colony was inoculated in MH2 media and grown at 37° C. and 200 rpm to an optical density (measured by UV/Vis spectroscopy) of 0.6-0.8 at 600 nm. Out of these suspensions, actual inoculums were prepared by diluting them to an optical density of 0.1 in MH2 media. From these inoculums, 200 μL was transferred to each well, resulting in a final compound concentration range of 64 μM-31.3 nM for, K. pneumoniae, A. baumanni, and E. cloacae, and 256 μM-125 nM for E. faecalis. Plates inoculated with E. faecalis were placed inside a GasPak™ Container System with GasPak™ Campy Container System sachets. All plates were incubated at 200 rpm for 18 h under the microorganism culturing conditions mentioned above.
(§7) MIC determination. After 18 h of growth, 200 μL was transferred to a 96-well F-bottom plate. The optical density was determined by a plate reader at 600 nm, with 10 s shaking before reading. Triplicate measurements were averaged, and a growth curve was plotted in Excel. The first column in which the growth reached half the value of maximum growth was determined as the MIC50 value for that particular compound.
(§8) MIC50. The MIC50 of a compound was assigned at which the bacterial growth reached half the value of maximum growth.

For the next test, the system named is A. baumannii DSM 105126. Description: MIC 50, broth micro-dilution, DSM strains. The test is classed as cell-based, Acinetobacter baumannii.
Text: as §1, §2, §3, §4, §5, §6, §7, §8
Background: Broth dilution looks for growth in wells or tubes with falling amounts of substance.

[1] abbreviates: Klebsiella pneumoniae, DSM26371, K. pneumoniae DSM 26371, read-out: MIC 50.
The mark [2] stands for this setting: Acinetobacter baumannii, DSM105126, read-out: MIC 50.

With `N=C(NCCCN)NC1[C@@H](O)C(OC2[C@@H](F)[C@H](O[C@H]3OC(CN)[C@@H](O)CC3N)C(N)C[C@H]2NC(=O)[C@@H](O)CCN)O[C@H](CO)[C@H]1O` (some centres unmarked) [ABX5030, Tobra-AHB-F-Gua-3-amino-propyl], the MIC50 in the test with K. pneumoniae DSM 26371 (setting [1]) was 0.125 µM (≈ 0.0837 µg/mL); in the test on A. baumannii DSM 105126 (setting [2]) it was 0.0312 to 0.0625 µM (≈ 0.0209 to 0.0419 µg/mL).
For `N=C(NCCO)NC1[C@@H](O)C(OC2[C@@H](F)[C@H](O[C@H]3OC(CN)[C@@H](O)CC3N)C(N)C[C@H]2NC(=O)[C@@H](O)CCN)O[C@H](CO)[C@H]1O` (some centres unmarked) [ABX5029, Tobra-AHB-F-Gua 2-hydroxy-ethyl] the same measures were 0.125 to 0.25 µM (≈ 0.0821 to 0.164 µg/mL) and 0.0625 µM (≈ 0.041 µg/mL).
As to `N=C(NC[C@@H]1CCCN1)NC1[C@@H](O)C(OC2[C@@H](F)[C@H](O[C@H]3OC(CN)[C@@H](O)CC3N)C(N)C[C@H]2NC(=O)[C@@H](O)CCN)O[C@H](CO)[C@H]1O` (stereo partly drawn) [ABX5026, Tobra-AHB-F-Gua (S) pyrrolidine-2-yl-methyl], the figures for the MIC50 with K. pneumoniae DSM 26371 (setting [1]) and in the test on A. baumannii DSM 105126 (setting [2]) were 0.125 µM (≈ 0.087 µg/mL) and 0.0312 to 0.0625 µM (≈ 0.0217 to 0.0435 µg/mL), respectively.
For `N=C(NC[C@H]1CCNC1)NC1[C@@H](O)C(OC2[C@@H](F)[C@H](O[C@H]3OC(CN)[C@@H](O)CC3N)C(N)C[C@H]2NC(=O)[C@@H](O)CCN)O[C@H](CO)[C@H]1O` (stereo partly drawn) [ABX5042, Tobra-AHB-F-Gua (S) pyrrolidine-3-ylmethyl] the same measures were 0.5 µM (≈ 0.348 µg/mL) and 0.0625 µM (≈ 0.0435 µg/mL).
For `N=C(N)NC1[C@@H](O)C(OC2[C@@H](F)[C@H](O[C@H]3OC(CN)[C@@H](O)[C@H](O)C3N)C(N)C[C@H]2NC(=O)[C@@H](O)CCN)O[C@H](CO)[C@H]1O` (some centres unmarked) [ABX4006, KanaB-AHB-F-Gua] the same measures were 0.125 µM (≈ 0.0786 µg/mL) and 0.125 µM (≈ 0.0786 µg/mL).
For `N=C(N)NC1[C@@H](O)C(OC2[C@@H](F)[C@H](O[C@H]3OC(CN)[C@@H](O)[C@H](O)C3O)C(N)C[C@H]2NC(=O)[C@@H](O)CCN)O[C@H](CO)[C@H]1O` (stereo partly drawn) [ABX3003, 3′epi-KanaA-AHB-F-Gua] the same measures were 0.5 µM (≈ 0.315 µg/mL) and 0.0625 to 0.125 µM (≈ 0.0394 to 0.0787 µg/mL).
Consider `NCC[C@H](O)C(=O)N[C@@H]1C[C@H](N)[C@@H](O[C@H]2O[C@H](CN)[C@@H](O)[C@H](O)[C@H]2O)[C@H](O)[C@H]1O[C@H]1O[C@H](CO)[C@@H](O)[C@H](N)[C@H]1O` [Amikacin, amikacin, reference compound], for which the MIC50 in the test on K. pneumoniae DSM 26371 (setting [1]) and with A. baumannii DSM 105126 (setting [2]) was 0.5 µM (≈ 0.293 µg/mL) each time.
`N=C(N)NC1[C@@H](O)C(OC2[C@@H](O)[C@H](O[C@H]3OC(CN)[C@@H](O)[C@H](O)C3N)C(N)C[C@H]2NC(=O)[C@@H](O)CCN)O[C@H](CO)[C@H]1O` (some centres unmarked) [ABX4009, KanaB-AHB-Gua]: the “MIC50” value in the test with K. pneumoniae DSM 26371 (K. pneumoniae DSM 26371) worked out at 1 µM (≈ 0.627 µg/mL); against A. baumannii DSM 105126, 0.5 µM (≈ 0.313 µg/mL).
Regarding `N=C(N)NC1[C@@H](O)C(OC2[C@@H](F)[C@H](O[C@H]3OC(CNCCO)[C@@H](O)CC3N)C(N)C[C@H]2NC(=O)[C@@H](O)CCN)O[C@H](CO)[C@H]1O` (some centres unmarked) [ABX5045, 6N-2-hydroxy-ethyl-Tobra-AHB-F-Gua], the MIC50 with K. pneumoniae DSM 26371 (setting [1]) and in the test with A. baumannii DSM 105126 (setting [2]) was 0.5 µM (≈ 0.328 µg/mL) throughout.
For `NCC[C@H](O)C(=O)N[C@@H]1CC(N)[C@@H](O[C@H]2OC(CN)[C@@H](O)[C@@H](O)C2N)[C@H](O)C1OC1O[C@H](CO)[C@@H](O)C(N)[C@H]1O` (stereo partly drawn) [ABX4002, 3′Epi-KanaB-AHB], the entries for the “MIC50” value against K. pneumoniae DSM 26371 (K. pneumoniae DSM 26371) and against A. baumannii DSM 105126 were 1 µM (≈ 0.585 µg/mL) and 0.5 µM (≈ 0.292 µg/mL), respectively.
